The target of data set [1] is T1, Cholesterol 24-hydroxylase (Homo sapiens, UniProt Q9Y6A2). Briefly: Binding affinity to full-length recombinant human CYP46A1 by spectral binding study.
Target sequence in this assay (Q9Y6A2 whole entry, looked up): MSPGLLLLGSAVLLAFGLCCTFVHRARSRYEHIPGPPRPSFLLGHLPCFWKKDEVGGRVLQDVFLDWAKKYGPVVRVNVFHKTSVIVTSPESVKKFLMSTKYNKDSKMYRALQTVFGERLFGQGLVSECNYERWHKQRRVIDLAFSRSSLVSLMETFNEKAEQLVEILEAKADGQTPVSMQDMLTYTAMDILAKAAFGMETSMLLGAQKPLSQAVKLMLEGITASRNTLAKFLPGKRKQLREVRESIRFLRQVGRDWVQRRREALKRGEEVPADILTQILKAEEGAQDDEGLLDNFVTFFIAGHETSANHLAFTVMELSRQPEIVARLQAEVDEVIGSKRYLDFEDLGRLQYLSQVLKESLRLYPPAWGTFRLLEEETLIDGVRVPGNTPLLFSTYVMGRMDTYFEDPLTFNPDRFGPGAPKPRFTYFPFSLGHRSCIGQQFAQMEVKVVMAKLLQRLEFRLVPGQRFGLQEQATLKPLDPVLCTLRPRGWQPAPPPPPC
Data set [2] concerns the target T1, Cholesterol 24-hydroxylase. Put plainly: Stimulation of full-length recombinant human CYP46A1 assessed as cholesterol hydroxylation at 43 uM using cholesterol as substrate in presence of NADPH cytochrome P450 oxidoreductase by gas chromatography-mass spectrometry.
Target sequence in this assay (Q9Y6A2 whole entry, looked up): as above
Data set [3] addresses T1, Cholesterol 24-hydroxylase. Put plainly: Binding affinity to active site of full-length recombinant human CYP46A1 assessed as induction of type-II spectral response with minimum at 413 nm and maximum at 434 nm by spectral binding study.
Target sequence in this assay (Q9Y6A2 whole entry, looked up): as above
For data set [4], the target named is T2, Cholesterol side-chain cleavage enzyme, mitochondrial (Bos taurus, UniProt P00189).
T2 sequence (P00189 whole entry): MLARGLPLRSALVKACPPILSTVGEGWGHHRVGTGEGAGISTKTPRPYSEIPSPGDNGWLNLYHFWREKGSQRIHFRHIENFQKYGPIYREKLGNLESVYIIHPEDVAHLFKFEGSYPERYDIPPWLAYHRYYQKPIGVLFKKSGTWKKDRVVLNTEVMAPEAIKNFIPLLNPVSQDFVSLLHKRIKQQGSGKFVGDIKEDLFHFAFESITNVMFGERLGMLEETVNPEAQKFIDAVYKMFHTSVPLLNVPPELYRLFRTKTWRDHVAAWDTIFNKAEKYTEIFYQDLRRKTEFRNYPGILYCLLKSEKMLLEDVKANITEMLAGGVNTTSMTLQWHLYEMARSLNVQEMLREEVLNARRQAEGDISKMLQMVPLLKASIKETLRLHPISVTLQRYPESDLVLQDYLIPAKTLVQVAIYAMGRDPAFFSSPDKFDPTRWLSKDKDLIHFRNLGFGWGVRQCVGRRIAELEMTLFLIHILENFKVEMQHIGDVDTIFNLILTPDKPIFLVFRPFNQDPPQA
Briefly: Binding affinity to active site of bovine CYP11A1 assessed as induction of type-II spectral response by spectral binding study. The note with it: cattle.

Data set [5] addresses T3, Sterol 26-hydroxylase, mitochondrial (Homo sapiens) (UniProt Q02318).
T3 sequence (whole entry): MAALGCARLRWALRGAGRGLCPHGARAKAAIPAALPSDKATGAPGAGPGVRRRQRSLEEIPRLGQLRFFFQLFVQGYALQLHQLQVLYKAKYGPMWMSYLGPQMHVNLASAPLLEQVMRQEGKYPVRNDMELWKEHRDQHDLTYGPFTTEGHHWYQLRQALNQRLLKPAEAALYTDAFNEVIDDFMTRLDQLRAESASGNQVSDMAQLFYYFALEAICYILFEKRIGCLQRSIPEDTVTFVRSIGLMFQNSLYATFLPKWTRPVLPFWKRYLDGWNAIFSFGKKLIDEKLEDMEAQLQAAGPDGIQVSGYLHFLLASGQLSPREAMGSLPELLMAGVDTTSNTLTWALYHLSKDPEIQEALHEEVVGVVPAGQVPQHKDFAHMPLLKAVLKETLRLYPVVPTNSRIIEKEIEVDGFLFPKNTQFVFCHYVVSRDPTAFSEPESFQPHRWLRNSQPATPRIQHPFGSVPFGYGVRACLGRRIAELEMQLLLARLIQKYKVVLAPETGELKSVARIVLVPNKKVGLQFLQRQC
Put plainly: Binding affinity to full-length recombinant human CYP27A1 assessed as induction of spectral shift up to 100 uM by spectral binding study.

Data set [6] relates to Mus musculus. Briefly: In-vivo inhibition of CYP46A1 in C57/B6J mouse plasma assessed as reduction in 24S-hydroxy cholesterol at 60 mg/kg, ip dosed qd for 5 days by isotope dilution mass-spectrometry relative to control. The format is functional. The note with it: 120 h.
For data set [7], the species on record is Mus musculus. The note with it: C57/B6J, 60 mg/kg.
For data set [8], the species on record is Mus musculus. The note with it: C57/B6J, 75 mg/kg.
Data set [9] is filed under the species Mus musculus. The note with it: C57/B6J, 60 mg/kg. The source holds these as a separate data set.
Description: In-vivo inhibition of CYP46A1 in C57/B6J mouse brain assessed as reduction in lathosterol level at 60 mg/kg, ip dosed qd for 5 days by isotope dilution mass-spectrometry relative to control
Data set [10] concerns the target T1, Cholesterol 24-hydroxylase. Briefly: Inhibition of full-length recombinant human CYP46A1 assessed as cholesterol hydroxylation using cholesterol as substrate in presence of NADPH cytochrome P450 oxidoreductase by gas chromatography-mass spectrometry.
Target sequence in this assay (Q9Y6A2 whole entry): as the sequence (Q9Y6A2 whole entry, looked up) above

Activity calls are given as the source filed them. The rule behind the calls is not given here.

The inhibition in vivo is the change of the read-out against control, counted positive when it falls. The Ki is a dissociation constant, usually derived from enzyme kinetics or from competition with a known ligand.

Take `CC(=O)[C@H]1CC[C@H]2[C@@H]3CC=C4C[C@@H](O)CC[C@]4(C)[C@H]3CC[C@]12C`: the result in [1] was inactive. As for `CCOc1ccc(NC(=O)CC)cc1`, in [2], the Activity came to 101%. On the same count and under the same terms, for `CC(=O)Nc1ccc(O)cc1` the value was 132%. With `C[C@@H](c1ncncc1F)[C@](O)(Cn1cncn1)c1ccc(F)cc1F` [VORICONAZOLE], the outcome in data set [3] was Active. In data set [4], the outcome was Active. The outcome in data set [5] was inactive. Besides, in the data set on Mus musculus [6], the inhibition in vivo at 60 mg/kg was found to be 30%. Moreover, the inhibition result in the data set filed under Mus musculus [7], in the data set filed under Mus musculus [8] and in the data set listed under Mus musculus [9] was “Active” each time. Turning to `CC(=O)Nc1ccc(C)cc1`, the Activity in [2] stood at 112%.

Consider `CC(=O)Nc1ccc(CO)cc1`, for which the Activity in data set [2] was determined as 112%.

Consider `CC(=O)[C@H]1CC[C@H]2[C@@H]3CC=C4C[C@@H](OS(=O)(=O)O)CC[C@]4(C)[C@H]3CC[C@]12C`, for which, in data set [10], the Ki came to 2.5 µM. Turning to `CC(=O)Nc1cccc(O)c1`, the Activity in data set [2] worked out at 87%. Still for that read-out and setting: for `COc1ccc(NC(C)=O)cc1` the value was 100%; for `CCOc1ccc(N)cc1`, 50%; for `CCCCOc1ccc(NC(C)=O)cc1`, 107%.

Turning to `CC(=O)Nc1ccccc1O`, the Activity in data set [2] was 103%.

(Values after ChEMBL document CHEMBL4417626, “Post-Translational Regulation of Catalytic Activities of Cytochrome P450 46A1 and Uses Thereof” (2017).)
